# Laboratory results as given in the supplement of paper PMC10307832.
# Columns and labels:
# Assay in all cases: relative viability (nuclei count vs DMSO), 5 days (fraction); higher = more cells survive
# IU1-47 + Bortezomib = compound: CC1=CC(=C(N1C2=CC=C(C=C2)Cl)C)C(=O)CN3CCCCC3 [IU1-47] + CC(C)C[C@H](NC(=O)[C@H](Cc1ccccc1)NC(=O)c1cnccn1)B(O)O [Bortezomib] (partner 0.002 µM)
# In short: (§1)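 After 5 days of treatment, lung cancer cells in 1536-well plates were fixed and stained in a single step (final 0.05% Triton X-100, 1% formaldehyde, 1 ug/ml Hoechst) and their nuclei counted on 4× images. Treatment had been applied by pin tool the day after seeding as one drug alone or as a fixed anchor-drug dose with five library-drug doses (not always all listed) in √10 steps. Relative viability is the nuclei count of treated wells divided by that of vehicle wells, and values are medians of duplicate plates.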
# FG-4592 + Foretinib = compound: Cc1nc(C(=O)NCC(=O)O)c(O)c2ccc(Oc3ccccc3)cc12 [FG-4592] + COc1cc2c(Oc3ccc(NC(=O)C4(C(=O)Nc5ccc(F)cc5)CC4)cc3F)ccnc2cc1OCCCN1CCOCC1 [Foretinib] (partner 0.25 µM)
# In short: as §1
# FG-4592 + Trametinib = compound: Cc1nc(C(=O)NCC(=O)O)c(O)c2ccc(Oc3ccccc3)cc12 [FG-4592] + CC(=O)Nc1cccc(-n2c(=O)n(C3CC3)c(=O)c3c(Nc4ccc(I)cc4F)n(C)c(=O)c(C)c32)c1 [Trametinib] (partner 0.02 µM)
# In short: as §1
# IU1-47 + Dasatinib = compound: CC1=CC(=C(N1C2=CC=C(C=C2)Cl)C)C(=O)CN3CCCCC3 [IU1-47] + Cc1nc(Nc2ncc(C(=O)Nc3c(C)cccc3Cl)s2)cc(N2CCN(CCO)CC2)n1 [Dasatinib] (partner 0.075 µM)
# In short: as §1
Cell Line,relative viability (IU1-47 + Bortezomib; first compound 0.08 µM),relative viability (IU1-47 + Bortezomib; first compound 0.253 µM),relative viability (IU1-47 + Bortezomib; first compound 0.8 µM),relative viability (IU1-47 + Bortezomib; first compound 2.53 µM),relative viability (IU1-47 + Bortezomib; first compound 8 µM),relative viability (FG-4592 + Foretinib; first compound 0.08 µM),relative viability (FG-4592 + Foretinib; first compound 0.253 µM),relative viability (FG-4592 + Foretinib; first compound 0.8 µM),relative viability (FG-4592 + Foretinib; first compound 2.53 µM),relative viability (FG-4592 + Foretinib; first compound 8 µM),relative viability (FG-4592 + Trametinib; first compound 0.08 µM),relative viability (FG-4592 + Trametinib; first compound 0.253 µM),relative viability (FG-4592 + Trametinib; first compound 0.8 µM),relative viability (FG-4592 + Trametinib; first compound 2.53 µM),relative viability (FG-4592 + Trametinib; first compound 8 µM),relative viability (IU1-47 + Dasatinib; first compound 0.08 µM),relative viability (IU1-47 + Dasatinib; first compound 0.253 µM),relative viability (IU1-47 + Dasatinib; first compound 0.8 µM),relative viability (IU1-47 + Dasatinib; first compound 2.53 µM),relative viability (IU1-47 + Dasatinib; first compound 8 µM)
NCI-H661,0.962,0.944,0.896,0.564,0.732,1.06,0.956,1.09,0.987,0.938,0.559,0.525,0.536,0.554,0.525,0.884,0.879,0.83,0.77,0.695
HCC-15,1.11,1.05,1.05,0.928,0.856,1.03,0.978,1.04,0.93,1.07,0.41,0.359,0.352,0.395,0.412,0.687,0.749,0.685,0.564,0.519
LCLC-103H,1.2,1.14,1.1,1.12,1.08,0.716,0.671,0.632,0.799,0.769,0.713,0.582,0.684,0.684,0.69,0.49,0.471,0.491,0.465,0.345
NCI-H441,0.732,0.574,0.489,0.561,0.56,0.956,0.896,0.931,0.841,1.01,0.497,0.433,0.401,0.3,0.497,0.717,0.655,0.679,0.471,0.576
EPLC-272H,1.05,0.943,1.04,,0.891,0.755,0.738,0.521,0.706,0.641,0.288,0.232,0.234,0.303,0.308,0.371,0.459,0.322,,0.35
